From patent US6969738B2, “Malic acid diester surfactants” (Air Products and Chemicals, Inc., priority 1999, dated 2005)

What was measured:
Format in all cases: physicochemical
[1] = Dynamic surface tension of aqueous solutions, maximum bubble pressure method; conditions: for γ(0.1 wt % solution) (1 b/s) / γ(0.1 wt % solution) (6 b/s) / pC20 / limiting γ (0.1 b/s) / limiting γ (1 b/s) / limiting γ (6 b/s) / limiting γ (20 b/s): 25° C.; for pC20: negative logarithm of molar concentration giving 52.1 dyne/cm at 0.1 b/s; for limiting γ (0.1 b/s) / limiting γ (1 b/s) / limiting γ (6 b/s) / limiting γ (20 b/s): water
Text: In the following Examples dynamic surface tension data were obtained for aqueous solutions of various compounds using the maximum bubble pressure method at bubble rates from 0.1 bubbles/second (b/s) to 20 b/s. […] In practical terms, high bubble rates correspond to high printing speeds in lithographic printing, high spray or roller velocities in coating applications, and rapid application rates for agricultural products.
(§1) Solutions of the materials of Examples 1-10 in distilled water were prepared. […] The pC20 value is defined as the negative logarithm of the molar concentration of surfactant required to decrease the surface tension of an aqueous solution to […], that is, 20 dyne/cm below that of pure water when the measurement is performed at 0.1 b/s. This value is a measure of the efficiency of a surfactant. […] In addition, the relative efficiency of surfactants can be obtained by comparing surface tension reduction of solutions containing the same amount of different surfactants. Such data is given for 0.1 wt % solutions of the dialkylmalates at 1.0 and 6.0 bubbles/second (b/s). The solubility limit was determined by intersection of the linear portion of a surface tension/In concentration curve with the limiting surface tension as is described in many textbooks. The limiting surface tensions at 0.1, 1, 6 and 20 b/s represent the lowest surface tensions in water which can be achieved at the given surface creation rates for a given surfactant regardless of the amount of surfactant used and is used to evaluate the effectiveness of a surfactant. These values give information about the relative ability of a surfactant to reduce surface defects under near-equilibrium conditions (0.1 b/s) through very dynamic conditions (20 b/s). Lower surface tensions would allow the elimination of defects upon application of a formulation onto lower energy surfaces.

[2] = Foam test of 0.1 wt % solutions, procedure based upon ASTM D 1173-53; conditions: 0.1 wt % solution
Protocol: The foaming properties of 0.1 wt % solutions of the dialkylmalate surfactants of this invention were examined using a procedure based upon ASTM D 1173-53. In this test, a 0.1 wt % solution of the surfactant is added from an elevated foam pipette to a foam receiver containing the same solution. The foam height is measured at the completion of the addition (“Initial Foam Height”) and the time required for the foam to dissipate at the air-liquid interface (“Time to 0 Foam”) is recorded. This test provides a comparison between the foaming characteristics of various surfactant solutions. In general, in coatings, inks, adhesives, fountain solutions and agricultural compositions, foam is undesirable because it complicates handling and can lead to coating and print defects, and to inefficient application of agricultural materials.

[3] = Solubility limit in water from surface tension/ln concentration curve; conditions: distilled water, 25° C.
Protocol: as §1

Row | Compound | γ(0.1 wt % solution) (1 b/s) [1] [dyne/cm] | γ(0.1 wt % solution) (6 b/s) [1] [dyne/cm] | pC20 [1] | limiting γ (0.1 b/s) [1] [Dyne/cm] | limiting γ (1 b/s) [1] [Dyne/cm] | limiting γ (6 b/s) [1] [Dyne/cm] | limiting γ (20 b/s) ([1]; 20 b/s) [Dyne/cm] | initial foam [2] [cm] | time to zero foam [2] [s] | solubility limit [3] [Weight %] | decrease in the limiting surface tension compared to dibutyl-DL-malate ([1]; 20 b/s) [dyne/cm] | limiting γ (20 b/s) ([1]; 20 b/s, listed as diisobutyl-DL-malate) | limiting γ (20 b/s) ([1]; 20 b/s, listed as diisopropyl-(S)-(−)-malate) [Dyne/cm]
1 | CC(C)CCOC(=O)CC(O)C(=O)OCCC(C)C (racemic) [Example 6, Diisoamyl-DL-malate] | 36.8 | 39.5 | 3.86 | 35.6 | 36.8 | 39.5 | 48.0 | 0.3 | 0.3 | 0.04 |  |  | 
2 | CC(C)COC(=O)CC(O)C(=O)OCC(C)C (racemic) [Example 3, Diisobutyl-DL-malate] | 44.1 | 45.2 | 3.08 | 33.5 | 33.3 | 33.4 | 35.3 | 0.6 | 0.2 | 0.4 | 3.3 | less than 36 Dyne/cm | 
3 | CC(C)CC(C)OC(=O)CC(O)C(=O)OC(C)CC(C)C (racemic) [Example 9, Di(4-methyl-2-pentyl)-DL-malate] | 46.2 | 56.4 | 3.84 | 40.8 | 50.9 | 63.9 | 69.4 | 0 | 0 | 0.02 |  |  | 
4 | CCC(C)COC(=O)CC(O)C(=O)OCC(C)CC (racemic) [Example 7, Di(2-methylbutyl)-DL-malate] | 38.9 | 41.2 | 3.47 | 37.8 | 38.9 | 41.2 | 49.7 | 1.2 | 0.1 | 0.04 |  |  | 
5 | CCC(C)OC(=O)CC(O)C(=O)OC(C)CC (racemic) [Example 4, Di-sec-butyl-DL-malate] | 47.8 | 48.5 | 2.77 | 36.5 | 36.7 | 37.3 | 38.1 | 1.0 | 60 | 0.6 |  |  | 
6 | CCCCOC(=O)CC(O)C(=O)OCCCC (racemic) [Example 2, Dibutyl-DL-malate] | 43.8 | 44.8 | 3.04 | 35.8 | 36.0 | 36.5 | 38.6 | 0.9 | 20 | 0.3 |  |  | 
7 | CC(C)OC(=O)C[C@H](O)C(=O)OC(C)C [Example 1, Diisopropyl-(S)-(−)-malate] | 59.2 | 60.1 | 1.83 | 33.6 | 33.8 | 34.0 | 35.3 | 1.3 | 14 | 5 |  |  | < 34
8 | O=C(CC(O)C(=O)OCc1ccccc1)OCc1ccccc1 (racemic) [Example 10, Dibenzyl-DL-malate] | 61.5 | 65.2 | 2.23 | 54.0 | 57.7 | 60.3 | 70.0 | 0 | 0 | 0.08 |  |  | 
9 | CCCCCCOC(=O)CC(O)C(=O)OCCCCCC (racemic) [Example 8, Dihexyl-DL-malate] | 58.8 | 52.0 | 3.25 | 55.6 | 65.2 | 69.3 | 71.2 | 0.5 | 0.1 | 0.005 |  |  | 
10 | CCCCCOC(=O)CC(O)C(=O)OCCCCC (racemic) [Example 5, Dipentyl-DL-malate] | 38.2 | 40.5 | 3.52 | 36.8 | 38.2 | 40.5 | 50.1 | 0.5 | 0.2 | 0.03 |  |  | 
